# Key:
# TNF-α production = TNF-α production by the monocytic cell line; type: cell-based, human; settings: data not shown
# Experimental: (§1) ELISA. Human IL-1β, IL-8, hBD-2 and TNF-α protein concentration were measured in the supernatants of stimulated cells using various ELISA Sets (all from Ready-Set-Go from eBioscience, except hBD-2 measurements: Human DEFB4A/BD-2 ELISA Kit from LSBio) according to the manufacturer's instructions. We used serial dilutions of recombinant human IL-1β, IL-8, hBD-2 and TNF-α for standard curve. The optical density was determined at 450 nm at a wavelength correction of 540 nm.
# Both molecules, were tested to inhibit the production of IL-1β by the monocytic cell line. ThP-1 cells were pretreated with diclazuril and meclozine, at the concentrations ranging from 0.39 to 50 μM, for 24 h and then stimulated with P. acnes suspension as described in Materials and Methods. The production of IL-1β was measured on culture supernatant by ELISA and the viability of cells was estimated by MTT assay (FIG. 2).
# IL-8 production = test: P. acnes-induced IL-8 production in HaCaT keratinocytes (ELISA); type: cell-based, human; settings: for reduction of IL-8 production, 24 h pre-treatment / effect on IL-8 production (time course, FIG. 4A) / effect on IL-8 production at 12.5 μM, in words / reduction of IL-8 production, 1 and 6 h pre-treatment / decrease of IL-8 production, 48 h pre-treatment: HaCaT; for reduction of IL-8 production, 24 h pre-treatment: 6.25 μM; for reduction of IL-8 production, 24 h pre-treatment / reduction of IL-8 production, 1 and 6 h pre-treatment / decrease of IL-8 production, 48 h pre-treatment: P. acnes 18 h; for effect on IL-8 production (time course, FIG. 4A): 10 μM, P. acnes 15-180 min; for reduction of IL-8 production, 24 h pre-treatment / effect on IL-8 production (time course, FIG. 4A): 24 h pre-treatment; for effect on IL-8 production at 12.5 μM, in words: 24 h pre-treatment (FIG. 8B); for reduction of IL-8 production, 1 and 6 h pre-treatment: 0.39 to 12.5 μM; for IC50: Homo sapiens, HaCaT cells pre-treated 24 h, then stimulated with P. acnes, read-out: IC50 of inhibition of IL-8 production
# Experimental: Bacterial strain and conditions of growth. P. acnes strain 6919 was obtained from the American Type Culture Collection (Manassas, Va.) and P. acnes strains RON and PIE were isolated from patient with joint infection. All strains were grown under anaerobic conditions in reinforced clostridial liquid and solid medium (RCM) (Difco Laboratories, Detroit, Mich.). P. acnes was transferred from the bacterial stock onto RCM agar plate and incubated for 5 days under anaerobic condition by using a GasPak™ EZ Anaerobic Container System (Becton Dickinson & Co, Sparks Md., USA). A single colony was transferred into 100 ml RCM and grown as described above. Bacterial suspension was then store frozen at −80° C. in presence of 10% glycerol final. This stock was called «start stock» and used for all the experiments. For routine culture, 100 ml of RCM was used and bacteria were harvested after 5 days at 37° C. by centrifugation at 7,000×g for 10 min at 4° C. Pellets were pooled and washed in about 30 ml of cold sterile PBS [1.5 mM KH2PO4, 2.7 mM Na2HPO4.7H2O, 0.15 M NaCl (pH 7.4)] and centrifuged again as described above. Finally, the bacterial pellet was suspended in sterile PBS (1:10 from volume culture).
# Cell culture, pretreatment and stimulation. The immortalized human keratinocyte cell line HaCaT, fibroblast MRC5 were grown in Dulbecco's modified Eagle's medium-Glutamax-I (DMEM) with 1 mM sodium pyruvate. The immortalized human monocytic cell line ThP1 was grown in Roswell Park Memorial Institute 1640 Medium-Glutamax-I (RPMI). DMEM and RPMI were supplemented with 0.1% and 10% heat-inactivated fetal calf serum (Invitrogen), and an antibiotic/antimycotic solution (10 U/ml Pencillin, 10 μg/ml Streptomycin, 0.25 μg/ml Amphoterin) at 37° C. in humidified atmosphere containing 5% CO2 as described (Life Technologie). Primary human keratinocytes (NHDK) and fibroblast (HDF) were grown in the KGM-Gold and in FGM-2 Bullet Kit, respectively, as described by the manufacturer (Lonza). The immortalized cell lines were routinely tested to assess the absence of Mycoplasma infection. Cells, cultivated in 6- or 96-well polystyrene plates, were pretreated with appropriate molecule solution for 1 to 48 h at 37° C. in the dark at the appropriate concentration. Then, for stimulation, cells were incubated for 15 min to 24 h with the P. acnes suspension adjusted at the appropriate concentration at 37° C. in 5% CO2. For experiences using an in vitro model of psoriasis, the primary human keratinocytes (NHDK) were grown in culture medium for 24 hours. The medium was removed and replaced with culture medium containing meclozine, diclazuril and JAK inhibitor (used as positive control) at the concentrations of 0.39, 0.78, 1.56, 3.12, 6.25 and 12.5 μM and the pro-inflammatory mixture M5 (combination of IL-17A, OSM, TNF-α, IL-22, IL-1α at 10 ng/ml) was added to the cells followed by an incubation for 48 or 72 hours.
# as §1
# Both molecules, diclazuril and meclozine, were purchased separately from Sigma and tested independently on immortalized keratinocytes HaCaT cell for their capacity to inhibit the IL-8 production in a dose-dependent manner. HaCaT cells were pre-treated with diclazuril and meclozine, at the concentrations ranging from 0.39 to 50 μM, for 24 h and then stimulated with P. acnes suspension as described in Materials and Methods. The production of IL-8 was measured on culture supernatant by ELISA and the viability of cells was estimated by MTT assay (FIG. 1).
SMILES,inhibition of TNF-α production (TNF-α production),"reduction of IL-8 production, 24 h pre-treatment (IL-8 production) [%]","effect on IL-8 production (time course, FIG. 4A) (IL-8 production)","effect on IL-8 production at 12.5 μM, in words (IL-8 production)","reduction of IL-8 production, 1 and 6 h pre-treatment (IL-8 production)","decrease of IL-8 production, 48 h pre-treatment (IL-8 production) [%]",IC50 (IL-8 production) [µM]
"Cc1cccc(CN2CCN(C(c3ccccc3)c3ccc(Cl)cc3)CC2)c1 (centres unmarked) [meclozine, Meclozine]",no effect,63,inhibit,strong effect,did not reduce significantly,78,~3
"N#CC(c1ccc(Cl)cc1)c1c(Cl)cc(-n2ncc(=O)[nH]c2=O)cc1Cl (centres unmarked) [diclazuril, Diclazuril]",no effect,36,inhibit,strong effect,did not reduce significantly,65,~6

# Source: US11617748B2, “Meclozine derivatives and diclazuril derivatives for use in the prevention and/or the treatment of disorders associated to the inflammation induced by P. acnes” (priority 2016, dated 2023)
